In patent US12544392B2, “Treatment of adenovirus infection or disease associated with adenovirus infection” (SymBio Pharmaceuticals Limited, priority 2023, dated 2026):

Tested on: adenovirus (AdV)
Assay: Human clinical study of once-weekly IV BCV (Example 4): viral load of AdV in plasma
Format: in vivo
Settings: cohorts 4-6: 0.4, 0.6 or 0.8 mg/kg (20, 30 or 40 mg/dose if body weight ≥50 kg) IV once weekly
Protocol: A human clinical study on the treatment of AdV infectious disease is conducted according to the following procedure. Patients aged 2 months or older who have asymptomatic AdV infection or AdV disease and have an underlying immunocompromised state, including hematopoietic stem cell transplant recipients before the immune reconstitution by the graft cells is achieved, organ transplant recipients on medication with an immunosuppressant, and patients with immunodeficiency syndrome. […] For patients who, at the physician's discretion, are assessed as being at high risk for AdV infection/recurrence of disease, the treatment period may be extended for up to 10 weeks, even after the 4-week treatment period is completed, if the AdV is not detected by the two most recent consecutive assays with an interval of 3 days at least. […] Adverse events are evaluated according to the National Cancer Institute Common Terminology Criteria for Adverse Events (NCI CTCAE) version 5.0 (grade 1-5). […]

For CCCCCCCCCCCCCCCCOCCCOP(=O)(O)CO[C@H](CO)Cn1ccc(N)nc1=O [BCV, [(2S)-1-(4-amino-2-oxopyrimidin-1-yl)-3-hydroxypropan-2-yl]oxymethyl-(3-hexadecoxypropoxy)phosphinic acid], the “levels of viral load of AdV during the study period” value was “reaches below the LOD”.
